Measured values from US20100029609A1 (priority 2006, published 2010).

Biological target: T1, human S1P1 receptors (Homo sapiens, UniProt P21453)
T1 construct: expressed in transfected cells; host or cells: HeLa (human cervix carcinoma, ATCC CCL2), HeLa-S1P1/Gα16 cell clone 1
Assay: Human S1P Receptor Calcium FLIPR Antagonist Assay, HeLa Gα16 S1P1
Format: cell-based
Conditions: HeLa-S1P1/Gα16 cells; antagonism of Ca2+ signal of probing agonist GNF-AC-1 at EC80
Source text: Human S1P Receptor Calcium FLIPR Antagonist Assays
The assay measures intracellular changes of Ca^2+ mediated by the synthetic probing agonist 3-{[2-(2-Trifluoromethyl-biphenyl-4-yl)-benzo[b]thiophen-5-ylmethyl]-amino}-propionic acid (GNF-AC-1) in the HeLa-S1P1/Gα16 cell clone 1: HeLa (human cervix carcinoma, ATCC CCL2) cells stably expressing N-terminally myc-tagged human S1P1 receptors (GenBank™ accession No. NM_001400; UNIPROT P21453) and promiscuous Gα16 protein (GenBank™ accession number M63904, Swissprot P30679) are cultured at 37° C., 5% CO2, and 95% relative humidity. The cells are plated in 384 well black plates (10,000 cells per well). After 24 hours the cells are loaded with Fluo4-AM (1.6 μM in HBSS and 2.5 mM probenicid) for 1 hour at 37° C. After washing, the cells are transferred to the FLIPR. The test compounds are added at different concentrations (≦30 μM) in HBSS in the presence of 0.1% BSA and changes in fluorescence are recorded (indication of agonism). The probing agonist is added 15 minutes afterwards to the wells at a concentration giving 80% of the maximal activity (EC80). After each addition time points are collected as follows: 20 time points (2 seconds) before the addition of the agonist (Fmin) and 60 time points (1 or 2 seconds) after the addition of the probing agonist. This allows the determination of the maximal fluorescence (Fmax). The ratio (Fmax-Fmin)/Fmin is plotted against the log of the concentration of the test compounds and the IC50 (relative antagonism) is determined with the help of XLfit-4 software. […] A dose response curve of the probing agonist is determined on each plate in parallel. The compounds of the invention are typically active in this assay at a concentration ranging typically from <1 nM to 30 μM, usually from less than 1 nanomolar to 1 micromolar.

T1 sequence (P21453 whole entry): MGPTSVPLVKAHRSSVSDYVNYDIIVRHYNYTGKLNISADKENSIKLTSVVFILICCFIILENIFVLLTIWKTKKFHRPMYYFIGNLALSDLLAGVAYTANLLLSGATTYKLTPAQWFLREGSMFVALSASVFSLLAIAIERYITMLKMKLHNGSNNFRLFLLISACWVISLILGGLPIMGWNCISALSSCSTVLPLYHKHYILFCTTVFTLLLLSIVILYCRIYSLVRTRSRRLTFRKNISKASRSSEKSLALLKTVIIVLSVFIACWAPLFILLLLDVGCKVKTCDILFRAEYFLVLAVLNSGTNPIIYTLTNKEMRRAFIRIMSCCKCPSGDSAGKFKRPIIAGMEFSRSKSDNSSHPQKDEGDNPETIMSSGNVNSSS

Compound | IC50
Cc1cc(S(=O)(=O)Nc2cccc(-c3ccc(C(=O)NCC(=O)O)cc3)c2)c(C)cc1Cl [Example 23, {[3′-(4-Chloro-2,5-dimethyl-benzenesulfonylamino)-biphenyl-4-carbonyl]-amino}-acetic acid] | 3.2 nM
Cc1cc(S(=O)(=O)Nc2cccc(-c3ccc(C(=O)N[C@@H](C)C(=O)O)cc3)c2)c(C)cc1Cl [Example 25, (S)-2-{[3′-(4-Chloro-2,5-dimethyl-benzenesulfonylamino)-biphenyl-4-carbonyl]-amino}-propionic acid] | 8.8 nM
Cc1cc(S(=O)(=O)Nc2cccc(-c3ccc(C(=O)N[C@@H](CO)C(=O)O)cc3)c2)c(C)cc1Cl [Example 28] | 2.8 nM
Cc1cc(S(=O)(=O)Nc2cccc(-c3ccc(C(=O)N[C@H](CC(=O)O)c4ccccc4)cc3)c2)c(C)cc1Cl [Example 36, (R)-3-{[3′-(4-Chloro-2,5-dimethyl-benzenesulfonylamino)-biphenyl-4-carbonyl]-amino}-3-phenyl-propionic acid] | 9.4 nM
Cc1cc(S(=O)(=O)Nc2cccc(-c3ccc(C(=O)N[C@@H](CO)C(=O)O)c(C)c3)c2)c(C)cc1Cl [Example 45, (S)-2-{[3′-(4-Chloro-2,5-dimethyl-benzenesulfonylamino)-3-methyl-biphenyl-4-carbonyl]-amino}-3-hydroxy-propionic acid] | 1.1 nM
Cc1cc(S(=O)(=O)Nc2cccc(-c3ccc(C(=O)N[C@H](CO)C(=O)O)c(C)c3)c2)c(C)cc1Cl [Example 46, (R)-2-{[3′-(4-Chloro-2,5-dimethyl-benzenesulfonylamino)-3-methyl-biphenyl-4-carbonyl]-amino}-3-hydroxy-propionic acid] | 0.8 nM
Cc1cc(S(=O)(=O)Nc2cccc(-c3ccc(C(=O)N[C@H](C(=O)O)[C@@H](C)O)c(C)c3)c2)c(C)cc1Cl [Example 47, (2S,3R)-2-{[3′-(4-Chloro-2,5-dimethyl-benzenesulfonylamino)-3-methyl-biphenyl-4-carbonyl]-amino}-3-hydroxy-butyric acid] | 1.5 nM
Cc1cc(S(=O)(=O)Nc2cccc(-c3ccc(C(=O)N[C@@H](COC(C)(C)C)C(=O)O)c(C)c3)c2)c(C)cc1Cl [Example 48, (S)-3-tert-Butoxy-2-{[3′-(4-chloro-2,5-dimethyl-benzenesulfonylamino)-3-methyl-biphenyl-4-carbonyl]-amino}-propionic acid] | 9 nM
Cc1cc(S(=O)(=O)Nc2cccc(-c3ccc(C(=O)NC4(C(=O)O)CNC4)c(C)c3)c2)c(C)cc1Cl [Example 51, 3-{[3′-(4-Chloro-2,5-dimethyl-benzenesulfonylamino)-3-methyl-biphenyl-4-carbonyl]-amino}-azetidine-3-carboxylic acid] | 3 nM
Cc1cc(S(=O)(=O)Nc2cccc(-c3ccc(C(=O)NC4(C(=O)O)CN(C)C4)c(C)c3)c2)c(C)cc1Cl [Example 55, 3-{[3′-(4-Chloro-2,5-dimethyl-benzenesulfonylamino)-3-methyl-biphenyl-4-carbonyl]-amino}-1-methyl-azetidine-3-carboxylic acid] | 5 nM
CC(=O)N1CC(NC(=O)c2ccc(-c3cccc(NS(=O)(=O)c4cc(C)c(Cl)cc4C)c3)cc2C)(C(=O)O)C1 [Example 56, 1-Acetyl-3-{[3′-(4-chloro-2,5-dimethyl-benzenesulfonylamino)-3-methyl-biphenyl-4-carbonyl]-amino}-azetidine-3-carboxylic acid] | 5 nM
Cc1cc(S(=O)(=O)Nc2cccc(-c3ccc(C(=O)NC4(C(=O)O)CC4)c(C)c3)c2)c(C)cc1Cl [Example 57, 1-{[3′-(4-Chloro-2,5-dimethyl-benzenesulfonylamino)-3-methyl-biphenyl-4-carbonyl]-amino}-cyclopropanecarboxylic acid] | 0.8 nM
Cc1cc(S(=O)(=O)Nc2cccc(-c3ccc(C(=O)N[C@H](C(=O)O)[C@H](C)O)c(C)c3)c2)c(C)cc1Cl [Example 59, (2S,3S)-2-{[3′-(4-Chloro-2,5-dimethyl-benzenesulfonylamino)-3-methyl-biphenyl-4-carbonyl]-amino}-3-hydroxy-butyric acid] | 0.7 nM
COC[C@H](NC(=O)c1ccc(-c2cccc(NS(=O)(=O)c3cc(C)c(Cl)cc3C)c2)cc1C)C(=O)O [Example 60, (S)-2-{[3′-(4-Chloro-2,5-dimethyl-benzenesulfonylamino)-3-methyl-biphenyl-4-carbonyl]-amino}-3-methoxy-propionic acid] | 1.5 nM
Cc1cc(S(=O)(=O)Nc2cccc(-c3ccc(C(=O)N[C@H](C(=O)O)C(C)(C)O)c(C)c3)c2)c(C)cc1Cl [Example 61, (S)-2-{[3′-(4-Chloro-2,5-dimethyl-benzenesulfonylamino)-3-methyl-biphenyl-4-carbonyl]-amino}-3-hydroxy-3-methyl-butyric acid] | 0.4 nM
CC[C@H](NC(=O)c1ccc(-c2cccc(NS(=O)(=O)c3cc(C)c(Cl)cc3C)c2)cc1C)C(=O)O [Example 62, (S)-2-{[3′-(4-Chloro-2,5-dimethyl-benzenesulfonylamino)-3-methyl-biphenyl-4-carbonyl]-amino}-butyric acid] | 0.5 nM
Cc1cc(S(=O)(=O)Nc2cccc(-c3ccc(C(=O)N[C@@H](C)C(=O)O)c(C)c3)c2)c(C)cc1Cl [Example 63, (S)-2-{[3′-(4-Chloro-2,5-dimethyl-benzenesulfonylamino)-3-methyl-biphenyl-4-carbonyl]-amino}-propionic acid] | 1.3 nM
Cc1cc(S(=O)(=O)Nc2cccc(-c3ccc(C(=O)NCC(=O)O)c(C)c3)c2)c(C)cc1Cl [Example 64, {[3′-(4-Chloro-2,5-dimethyl-benzenesulfonylamino)-3-methyl-biphenyl-4-carbonyl]-amino}-acetic acid] | 1.3 nM
Cc1cc(S(=O)(=O)Nc2cccc(-c3ccc(C(=O)NCc4nnn[nH]4)c(C)c3)c2)c(C)cc1Cl [Example 66, 3′-(4-Chloro-2,5-dimethyl-benzenesulfonylamino)-3-methyl-biphenyl-4-carboxylic acid (1H-tetrazol-5-ylmethyl)-amide] | 5.5 nM
COc1cc(-c2cccc(NS(=O)(=O)c3cc(C)c(Cl)cc3C)c2)ccc1C(=O)NCC(=O)O [Example 70, {[3′-(4-Chloro-2,5-dimethyl-benzenesulfonylamino)-3-methoxy-biphenyl-4-carbonyl]-amino}-acetic acid] | 1 nM
COc1cc(-c2cccc(NS(=O)(=O)c3cc(C)c(Cl)cc3C)c2)ccc1C(=O)N[C@@H](CO)C(=O)O [Example 71, (S)-2-{[3′-(4-Chloro-2,5-dimethyl-benzenesulfonylamino)-3-methoxy-biphenyl-4-carbonyl]-amino}-3-hydroxy-propionic acid] | 1 nM
Cc1cc(S(=O)(=O)Nc2cccc(-c3cnc(C(=O)N[C@@H](CO)C(=O)O)cn3)c2)c(C)cc1Cl [Example 79, (S)-2-({5-[3-(4-Chloro-2,5-dimethyl-benzenesulfonylamino)-phenyl]-pyrazine-2-carbonyl}-amino)-3-hydroxy-propionic acid] | 5 nM
Cc1cc(S(=O)(=O)Nc2cccc(-c3ccc(C(=O)N(C)[C@@H](CO)C(=O)O)cc3)c2)c(C)cc1Cl [Example 85, (S)-2-{[3′-(4-Chloro-2,5-dimethyl-benzenesulfonylamino)-biphenyl-4-carbonyl]-methyl-amino}-3-hydroxy-propionic acid] | 1.7 nM
Cc1cc(S(=O)(=O)Nc2cccc(-c3ccc(C(=O)N[C@H](CO)C(=O)O)cc3)c2)c(C)cc1Cl [Example 86] | 1.5 nM
